In patent publication US20230114728A1 (Venatorx Pharmaceuticals, Inc., priority 2019, published 2023):
Converted amounts (≈) assume the structure as drawn.

Tests used:
Assay type in all cases: cell-based
[1] = system: P. aeruginosa (ΔmexAB-oprM); assay: Broth microdilution MIC in CAMHB; conditions: Pseudomonas aeruginosa, read-out: Minimum Inhibitory Concentration, P. aeruginosa ΔmexAB-OprM
Summary of the method: (§1)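 Per CLSI broth microdilution, colonies were grown 3-5 h at 37° C in cation-adjusted Mueller Hinton broth, then diluted to a starting inoculum of 2-8×10^5 CFU/mL against 2-fold serial compound dilutions. Plates were incubated 16-20 h at 37° C, and MIC was read visually as the lowest concentration with no growth.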

[2] = system: E. coli ATCC 25922; assay: Broth microdilution MIC in CAMHB; conditions: Escherichia coli, ATCC25922; E. coli ATCC 25922; MHB; read-out: Minimum Inhibitory Concentration, E. coli 25922
Summary of the method: as §1

[3] = system: E. coli D22; assay: Broth microdilution MIC in CAMHB; conditions: Escherichia coli; E. coli D22 (hyper-permeable); MHB; read-out: Minimum Inhibitory Concentration, E. coli D22
Summary of the method: as §1

[4] = system: E. coli AG100A; assay: Broth microdilution MIC in CAMHB; conditions: Escherichia coli, read-out: Minimum Inhibitory Concentration, E. coli AG100A
Summary of the method: as §1

[5] = system: N. gonorrhoeae H041; assay: Liquid broth MIC in Fastidious broth; conditions: Neisseria gonorrhoeae, H041, read-out: Minimum Inhibitory Concentration, N. gonorrhoeae H041
Summary of the method: (§2)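 Broth microdilution in Fastidious broth with 2-fold compound series; inoculum from 24 h chocolate agar colonies, 5×10^5 CFU/mL start. Incubated ~24 hours at 36° C, 5% CO2. MIC read visually as lowest concentration giving <10% growth versus full-growth wells; strains carry mosaic PBP2.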

[6] = system: N. gonorrhoeae WHO K; assay: Liquid broth MIC in Fastidious broth; conditions: Neisseria gonorrhoeae, read-out: Minimum Inhibitory Concentration, N. gonorrhoeae WHO K
Summary of the method: as §2

[7] = system: N. gonorrhoeae ATCC 49226; assay: Liquid broth MIC in Fastidious broth; conditions: Neisseria gonorrhoeae, ATCC49226; N. gonorrhoeae strain ATCC 49226; Fastidious broth; read-out: Minimum Inhibitory Concentration, N. gonorrhoeae ATCC 49226
Summary of the method: (§3)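 Colonies were swabbed from chocolate agar after 24 h growth and standardised by optical density at 600 nm. Compounds were serially diluted twofold in Fastidious broth, and bacteria added to give 5×10^5 CFU/mL. After about 24 h at 36 °C in 5% CO2, the lowest concentration allowing under 10% growth was taken as MIC.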

[8] = system: N. gonorrhoeae FA1090; assay: Liquid broth MIC in Fastidious broth; conditions: Neisseria gonorrhoeae; N. gonorrhoeae strain FA1090; Fastidious broth; read-out: Minimum Inhibitory Concentration, N. gonorrhoeae FA1090
Summary of the method: as §3

[9] = system: N. gonorrhoeae WHO G; assay: Liquid broth MIC in Fastidious broth; conditions: Neisseria gonorrhoeae; N. gonorrhoeae strain WHO G; Fastidious broth; read-out: Minimum Inhibitory Concentration, N. gonorrhoeae WHO G
Summary of the method: as §3

[10] = system: N. gonorrhoeae WHO L; assay: Liquid broth MIC in Fastidious broth; conditions: Neisseria gonorrhoeae; N. gonorrhoeae strain WHO L; Fastidious broth; read-out: Minimum Inhibitory Concentration, N. gonorrhoeae WHO L
Summary of the method: as §3

CCN1CCN(C(=O)NC(C(=O)N[C@H]2Cc3cccc(C(=O)O)c3OB2O)c2ccc(O)c(N)c2)C(=O)C1=O (stereo partly drawn) [Example 29, (3R)-3-(2-(3-amino-4-hydroxyphenyl)-2-(4-ethyl-2,3-dioxopiperazine-1-carboxamido)acetamido)-2-hydroxy-3,4-dihydro-2H-benzo[e][1,2]oxaborinine-8-carboxylic acid]
MIC [1]: 8 to 16 µg/mL (≈ 14.8 to 29.7 µM) | MIC [2]: 32 to 64 µg/mL (≈ 59.3 to 119 µM) | MIC [3]: 2 to 4 µg/mL (≈ 3.71 to 7.42 µM) | MIC [4]: 2 to 4 µg/mL (≈ 3.71 to 7.42 µM) | MIC [5]: > 64 µg/mL | MIC [6]: > 64 µg/mL | MIC [7]: > 64 µg/mL | MIC [8]: 4 to 8 µg/mL (≈ 7.42 to 14.8 µM) | MIC [9]: 16 to 32 µg/mL (≈ 29.7 to 59.3 µM) | MIC [10]: > 64 µg/mL

CCN1CCN(C(=O)N[C@H](C(=O)N[C@H]2Cc3cccc(C(=O)O)c3OB2O)c2cc(Cl)c(O)cc2Cl)C(=O)C1=O (single isomer, unassigned) [Example 92]
MIC [1]: > 128 µg/mL | MIC [2]: > 128 µg/mL | MIC [3]: > 128 µg/mL | MIC [4]: > 128 µg/mL | MIC [5]: > 64 µg/mL | MIC [6]: > 64 µg/mL | MIC [7]: > 64 µg/mL | MIC [8]: 16 to 32 µg/mL (≈ 27 to 53.9 µM) | MIC [9]: > 64 µg/mL | MIC [10]: > 64 µg/mL

CCN1CCN(C(=O)NC(C(=O)N[C@H]2Cc3cccc(C(=O)O)c3OB2O)c2cccc(NS(N)(=O)=O)c2)C(=O)C1=O (stereo partly drawn) [Example 98, (3R)-3-(2-(4-ethyl-2,3-dioxopiperazine-1-carboxamido)-2-(3-(sulfamoylamino)phenyl)acetamido)-2-hydroxy-3,4-dihydro-2H-benzo[e][1,2]oxaborinine-8-carboxylic acid]
MIC [1]: 8 to 16 µg/mL (≈ 13.3 to 26.6 µM) | MIC [2]: 8 to 16 µg/mL (≈ 13.3 to 26.6 µM) | MIC [3]: 0.5 to 1 µg/mL (≈ 0.83 to 1.66 µM) | MIC [4]: 0.5 to 1 µg/mL (≈ 0.83 to 1.66 µM) | MIC [5]: 16 to 32 µg/mL (≈ 26.6 to 53.1 µM) | MIC [6]: 16 to 32 µg/mL (≈ 26.6 to 53.1 µM) | MIC [7]: 16 to 32 µg/mL (≈ 26.6 to 53.1 µM) | MIC [8]: 0.25 to 0.5 µg/mL (≈ 0.415 to 0.83 µM) | MIC [9]: 1 to 2 µg/mL (≈ 1.66 to 3.32 µM) | MIC [10]: > 64 µg/mL

CCN1CCN(C(=O)NC(C(=O)N[C@H]2Cc3cccc(C(=O)O)c3OB2O)c2ccc(C(=O)O)c(F)c2)C(=O)C1=O (stereo partly drawn) [Example 31, (3R)-3-(2-(4-carboxy-3-fluorophenyl)-2-(4-ethyl-2,3-dioxopiperazine-1-carboxamido)acetamido)-2-hydroxy-3,4-dihydro-2H-benzo[e][1,2]oxaborinine-8-carboxylic acid]
MIC [1]: 8 to 16 µg/mL (≈ 14 to 28.1 µM) | MIC [2]: 32 to 64 µg/mL (≈ 56.1 to 112 µM) | MIC [3]: 2 to 4 µg/mL (≈ 3.51 to 7.01 µM) | MIC [4]: 2 to 4 µg/mL (≈ 3.51 to 7.01 µM) | MIC [5]: 4 to 8 µg/mL (≈ 7.01 to 14 µM) | MIC [6]: 4 to 8 µg/mL (≈ 7.01 to 14 µM) | MIC [7]: 1 to 2 µg/mL (≈ 1.75 to 3.51 µM) | MIC [8]: < 0.125 µg/mL | MIC [9]: 1 to 2 µg/mL (≈ 1.75 to 3.51 µM) | MIC [10]: 4 to 8 µg/mL (≈ 7.01 to 14 µM)

CCN1CCN(C(=O)NC(C(=O)N[C@H]2Cc3ccc(O[C@@H]4CN[C@H](C(=O)N(C)C)C4)c(C(=O)O)c3OB2O)c2ccccc2)C(=O)C1=O (stereo partly drawn) [Example 59, (3R)-7-(((3S,5S)-5-(dimethylcarbamoyl)pyrrolidin-3-yl)oxy)-3-(2-(4-ethyl-2,3-dioxopiperazine-1-carboxamido)-2-phenylacetamido)-2-hydroxy-3,4-dihydro-2H-benzo[e][1,2]oxaborinine-8-carboxylic acid]
MIC [1]: 8 to 16 µg/mL (≈ 12 to 24.1 µM) | MIC [2]: > 128 µg/mL | MIC [3]: 32 to 64 µg/mL (≈ 48.2 to 96.3 µM) | MIC [4]: 32 to 64 µg/mL (≈ 48.2 to 96.3 µM) | MIC [5]: > 64 µg/mL | MIC [6]: > 64 µg/mL | MIC [7]: > 64 µg/mL | MIC [8]: 4 to 8 µg/mL (≈ 6.02 to 12 µM) | MIC [9]: > 64 µg/mL | MIC [10]: > 64 µg/mL

CCN1CCN(C(=O)NC(C(=O)N[C@H]2Cc3cccc(C(=O)O)c3OB2O)c2cccc(NS(C)(=O)=O)c2)C(=O)C1=O (stereo partly drawn) [Example 76, (3R)-3-(2-(4-ethyl-2,3-dioxopiperazine-1-carboxamido)-2-(3-(methylsulfonamido)phenyl)acetamido)-2-hydroxy-3,4-dihydro-2H-benzo[e][1,2]oxaborinine-8-carboxylic acid]
MIC [1]: 8 to 16 µg/mL (≈ 13.3 to 26.6 µM) | MIC [2]: 32 to 64 µg/mL (≈ 53.2 to 106 µM) | MIC [3]: 2 to 4 µg/mL (≈ 3.33 to 6.65 µM) | MIC [4]: 2 to 4 µg/mL (≈ 3.33 to 6.65 µM) | MIC [5]: > 64 µg/mL | MIC [6]: > 64 µg/mL | MIC [7]: > 64 µg/mL | MIC [8]: 1 to 2 µg/mL (≈ 1.66 to 3.33 µM) | MIC [9]: 16 to 32 µg/mL (≈ 26.6 to 53.2 µM) | MIC [10]: > 64 µg/mL
